Earlier results as cited in patent EP0454783B1, “SITE SPECIFIC IN-VIVO ACTIVATION OF THERAPEUTIC DRUGS” (Akzo Nobel N.V., priority 1989, dated 1990).

Biological target: lysozyme (Gallus gallus, UniProt P00698)
Details: Imoto et al, 1972

lysozyme, sequence (P00698 19-147): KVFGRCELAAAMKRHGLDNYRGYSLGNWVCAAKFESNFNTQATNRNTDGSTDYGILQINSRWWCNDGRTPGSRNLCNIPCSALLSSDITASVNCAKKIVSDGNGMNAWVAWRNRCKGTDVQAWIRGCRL

CC(=O)N[C@H]1[C@H](O[C@H]2[C@H](O)[C@@H](NC(C)=O)[C@H](O[C@H]3[C@H](O)[C@@H](NC(C)=O)C(O)O[C@@H]3CO)O[C@@H]2CO)O[C@H](CO)[C@@H](O[C@@H]2O[C@H](CO)[C@@H](O[C@@H]3O[C@H](CO)[C@@H](O[C@@H]4O[C@H](CO)[C@@H](O)[C@H](O)[C@H]4NC(C)=O)[C@H](O)[C@H]3NC(C)=O)[C@H](O)[C@H]2NC(C)=O)[C@@H]1O (stereo partly shown) [chitohexaose]
fold higher rate of cleavage by lysozyme than chitotriose: 30,000 fold
